Key:
Assay type in all cases: in vivo, ICR mice
[1] = test system: IR, Akt, AS160, GLUT2 and PEPCK in liver of mice with type 1 DM; assay: Western blot of insulin signaling pathway in liver after 7-day borapetoside A; conditions: type 1 DM mice; 10 mgkg^−1 twice a day for 7 days
Protocol: After three days of acclimatization, the mice had free access to a standard rodent chow (normal mice), a standard rodent chow after single […] streptozotocin (STZ) intraperitoneal injection (T1DM mice), and a fat-rich chow diet and fructose-sweetened water (T2DM mice) for 4 weeks. The induction of Type 1 DM was assessed and confirmed when the mice had plasma glucose levels ≧350 mgdL^−1, accompanied with polyuria, hyperphagia and decreased body weight. The induction Type 2 DM in the mice was assessed by measuring fasting plasma glucose levels and confirmed when plasma glucose level was ≧150 mgdL^−1 after the 4-week induction. The animals were assigned randomly into three groups, with seven animals in each group. In group I, the mice were treated with vehicle, 2% DMSO in normal saline, as the negative control. In group II, the mice were intraperitoneally treated with borapetoside A (0.1-10 mgkg^−1). In group Ill, the positive control, the mice received intraperitoneally metformin (300 mgkg^−1; Sigma Chemical Co., St. Louis, Mo., U.S.A.) or insulin (0.5 IUkg^−1; Insulin Actrapid® HM; Novo Nordisk, Denmark). In the acute study, mice under anesthesia received a single intraperitoneal administration of borapetoside A, negative control, or positive control. In the subacute study, mice received intraperitoneal administrations of borapetoside A, vehicle, or insulin twice a day for seven days.
Western blot analysis was carried out by known methods with a slight modification. Briefly, tissues were homogenized in T-PER® Tissue Protein Extraction Reagent (Pierce Biotechnology, Rockford, Ill.) with Halt™ Protease Inhibitor Single-Use Cocktail (Pierce Biotechnology, Rockford, Ill.). Liver homogenates were prepared by mechanical homogenization (Polytron PT3100, Luzernerstrasse, Switzerland). After centrifuging the homogenates at 10,000 g for 30 minutes, the protein concentrations were determined by using a BCA Protein Assay Kit (Pierce Biotechnology, Rockford, Ill.). Later, 60 μg of protein preparations were applied on 10% sodium dodecyl sulfate-polyacrylamide gel for electrophoresis and then transferred to polyvinylidene difluoride membranes (Millipore, Billerica, Mass.). The membranes were analysed by using the antibodies against phospho-insulin receptor β (IRβ) (Tyr^1345), phospho-Akt (Ser^473), phosphor-AS160 (Thr^642), AS160 (Cell Signaling Technology, Beverly, Mass.), IRβ, Akt, β-Actin (Santa Cruz Biotechnology, Santa Cruz, Calif.), GLUT2 (Abcam, Cambridge, UK), and PEPCK (a gift from Professor DK Granner), respectively. Chemiluminescence detection and image analysis was performed with UVP-Biochimie Bioimager and Lab Works software (UVP, Upland, Calif.). The intensity of each band was quantified with ImageQuant.

[2] = test system: non-diabetic and T2DM mice; assay: Oral glucose tolerance test (OGTT) with borapetoside C; conditions: 5 mg/kg
Protocol: This study was conducted following the University ethical guidelines on animal experimentation and complied with the Guide for the Care and Use of Laboratory Animals published by the US National Institutes of Health (NIH publication no. 85-23, revised 1996). The animal facility was well controlled for temperature (22±1° C.), and humidity (60±5%) and a 12 h/12 h light-dark cycle was maintained with access to food and water ad libitum. Four-week-old male ICR mice were acquired from BioLasco Taiwan Co., Ltd. and maintained at College of Medicine Experimental Animal Center, National Taiwan University. The study was conducted on 8-10 week-old male ICR mice.
(§1) T1DM mice were induced by a known method. In brief, an intraperitoneal injection of streptozotocin (STZ; Sigma Chemical Co.; St. Louis, Mo.) at 150 mg/kg was performed in mice that were fasted for 48 h. The induction of T1DM was assessed and confirmed when the mice had plasma glucose levels ≧350 mg/dL, accompanied with polyuria, hyperphagia and decreased body weight. The control mice group received an injection of vehicle and then carried out for 4 weeks. T2DM mice were induced by maintaining on a fat-rich chow diet and fructose-sweetened water for 4 weeks from the age of 4-5 weeks according to previous methods. The induction T2DM mice were assessed by measuring fasting plasma glucose levels and confirmed when plasma glucose level was ≧150 mg/dL after a 4-week induction.
(§2) Blood samples were collected from the orbital vascular plexus of mice under anesthesia with sodium pentobarbital (80 mg/kg, intraperitoneal, Sigma Chemical Co., St. Louis, Mo., USA). Blood samples were then centrifuged at 13000 rpm for 5 min, and the plasma was kept on ice prior to the assay. The plasma glucose concentration was measured using commercial kits following manufacturer's instructions (BioSystems S. A., Barcelona, Spain).
To perform OGTT, mice were fasted overnight, divided into 2 groups and then administered a vehicle control and 5 mg/kg borapetoside C. This was followed by administration of a glucose solution at 2 g/kg via tube feeding. Blood samples were withdrawn from the orbital vascular plexus at intervals of 30, 60, 120, and 150 min after glucose administration. For the ITT, mice were fasted for 3 h. Human insulin (Insulin Actrapid) HM; Novo Nordisk, Denmark) was injected intraperitoneally after an intraperitoneal administration of 0.1 mg/kg borapetoside C for 30 min. Blood samples were collected from the orbital vascular plexus at the timed intervals mentioned above.

[3] = test system: non-diabetic, T1DM and T2DM mice; assay: Plasma glucose after bolus intraperitoneal borapetoside C
Protocol: as §1, §2

With `C[C@@]12C[C@@H](c3ccoc3)OC(=O)[C@@H]1C[C@@H]1OC(=O)[C@@]3(O)[C@@H](O[C@@H]4O[C@H](CO)[C@@H](O)[C@H](O)[C@H]4O)CC[C@@H]2[C@@]13C` [Borapetoside A, borapetoside A] the “PEPCK expression in liver” value [1] was “significant decrease”, the “expression of GLUT2 in liver” value [1] was “increased” and the “phosphorylated AS160 in liver” value [1] was “increased”. For the same molecule, the “phosphorylated Akt in liver” value [1] was “increased” and the “phosphorylated IR in liver” value [1] was “increased”.
In the case of `COC(=O)C1=CCC[C@H]2[C@]3(C)C[C@@H](c4ccoc4)OC(=O)[C@@H]3C[C@@H](O[C@@H]3O[C@H](CO)[C@@H](O)[C@H](O)[C@H]3O)[C@@]12C` [Borapetoside C, borapetoside C], the “basal plasma glucose concentration in OGTT” value ([2]; T2DM mice) is reported as 206.8 ± 19.0 mg/dL, the “decrease of area under the curve (AUC) in OGTT vs vehicle-treated group” value ([2]; T2DM mice) is reported as 16% and the “plasma glucose levels at 60, 120 and 150 min vs vehicle-treated mice” value ([2]; T2DM mice) is reported as “significantly lower”. The “plasma glucose concentration sixty min after oral glucose administration” value ([2]; T2DM mice, glucose 2 g/kg) was 338.2 ± 24.5 mg/dL, the “basal plasma glucose concentration in OGTT” value ([2]; non-diabetic mice) was 115 ± 3.5 mg/dL and the “plasma glucose levels at 120 min and 150 min vs vehicle-treated mice” value ([2]; non-diabetic mice) was “significantly lower”. For the same molecule, the “plasma glucose concentration at 60 min after oral administration of glucose” value ([2]; non-diabetic mice, glucose 2 g/kg) was 312.8 ± 21.3 mg/dL, the “decrease of area under the curve (AUC) in OGTT vs vehicle-treated group” value ([2]; normal mice) was 22% and the plasma glucose concentrations ([3]; bolus i.p. 0.5 to 5 mg/kg, non-diabetic, T1DM and T2DM mice) was “significantly lowered plasma glucose concentrations in a dose-dependent manner”. For the same molecule, the plasma glucose levels ([3]; borapetoside C at 0.1 mg/kg alone) was “did not alter the plasma glucose levels”.

Source: patent US20150265682A1, “THERAPEUTIC METHODS AND COMPOSITIONS FOR TREATING DIABETES” (Orient Europharma Co., Ltd., priority 2014, published 2015)
